Key:
[1] = biological target: AMPK alpha1/beta2/gamma1 (Homo sapiens, UniProt O43741+P54619+Q13131); experiment: Binding affinity to human recombinant N-terminal AVI-tagged phosphorylated AMPK alpha1beta2gamma1 expressed in Escherichia coli BL21 cells after 1 to 10 mins by biolayer interferometry
[2] = biological target: AMP-activated protein kinase (AMPK) alpha-1/beta-1/gamma-1 (Homo sapiens, UniProt P54619+Q13131+Q9Y478); experiment: Binding affinity to human recombinant N-terminal AVI-tagged phosphorylated AMPK alpha1beta1gamma1 expressed in Escherichia coli BL21 cells after 1 to 10 mins by biolayer interferometry
Chain of AMP-activated protein kinase (AMPK) alpha-1/beta-1/gamma-1 (P54619 whole entry): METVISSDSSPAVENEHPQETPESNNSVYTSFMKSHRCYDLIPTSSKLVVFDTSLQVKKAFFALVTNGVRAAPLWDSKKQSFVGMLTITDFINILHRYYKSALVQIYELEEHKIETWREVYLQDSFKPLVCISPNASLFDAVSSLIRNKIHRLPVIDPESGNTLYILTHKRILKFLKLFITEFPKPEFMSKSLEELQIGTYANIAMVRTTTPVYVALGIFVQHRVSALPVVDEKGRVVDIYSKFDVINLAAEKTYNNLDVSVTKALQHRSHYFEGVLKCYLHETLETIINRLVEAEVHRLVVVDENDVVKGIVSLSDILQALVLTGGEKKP
Chain of AMP-activated protein kinase (AMPK) alpha-1/beta-1/gamma-1 (Q9Y478 whole entry): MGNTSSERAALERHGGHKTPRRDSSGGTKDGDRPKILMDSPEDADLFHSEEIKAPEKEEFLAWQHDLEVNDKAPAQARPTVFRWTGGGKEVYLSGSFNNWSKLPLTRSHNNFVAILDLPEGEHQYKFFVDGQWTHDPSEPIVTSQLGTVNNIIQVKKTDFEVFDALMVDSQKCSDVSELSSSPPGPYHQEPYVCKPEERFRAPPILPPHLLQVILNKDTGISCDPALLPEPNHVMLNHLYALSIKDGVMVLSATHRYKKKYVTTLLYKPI
Chain of AMP-activated protein kinase (AMPK) alpha-1/beta-1/gamma-1 (Q13131 whole entry): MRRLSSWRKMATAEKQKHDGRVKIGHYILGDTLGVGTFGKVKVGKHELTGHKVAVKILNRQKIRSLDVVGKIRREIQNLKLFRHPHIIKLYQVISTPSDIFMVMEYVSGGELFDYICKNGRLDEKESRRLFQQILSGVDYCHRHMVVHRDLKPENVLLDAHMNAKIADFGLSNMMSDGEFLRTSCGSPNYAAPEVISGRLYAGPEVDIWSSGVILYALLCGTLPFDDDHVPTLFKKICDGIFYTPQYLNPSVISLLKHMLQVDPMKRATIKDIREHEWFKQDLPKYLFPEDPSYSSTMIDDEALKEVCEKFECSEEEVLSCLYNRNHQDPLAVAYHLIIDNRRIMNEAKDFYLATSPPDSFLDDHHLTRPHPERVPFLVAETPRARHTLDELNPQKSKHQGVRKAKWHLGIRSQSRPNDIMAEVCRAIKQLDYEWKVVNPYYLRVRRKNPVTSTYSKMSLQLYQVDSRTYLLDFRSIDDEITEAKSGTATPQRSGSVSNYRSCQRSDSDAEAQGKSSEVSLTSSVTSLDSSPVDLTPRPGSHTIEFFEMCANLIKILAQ

[3] = system: HEK293; experiment: Selectivity ratio of FLAG-tagged wild type AMPK beta1 (unknown origin) expressed in HEK293 cells over FLAG-tagged wild type AMPK beta2 (unknown origin) expressed in HEK293 cells; assay type: cell-based; details: Homo sapiens

Chain of AMPK alpha1/beta2/gamma1 (O43741 whole entry): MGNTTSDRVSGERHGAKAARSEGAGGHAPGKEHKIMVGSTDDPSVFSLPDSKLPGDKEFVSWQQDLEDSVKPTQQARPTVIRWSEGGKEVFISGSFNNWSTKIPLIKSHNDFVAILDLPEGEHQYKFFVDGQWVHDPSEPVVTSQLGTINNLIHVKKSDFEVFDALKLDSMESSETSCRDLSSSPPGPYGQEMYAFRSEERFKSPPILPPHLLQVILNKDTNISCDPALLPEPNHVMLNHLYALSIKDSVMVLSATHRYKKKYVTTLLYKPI
Chain of AMPK alpha1/beta2/gamma1 (P54619 whole entry): as the sequence (P54619 whole entry) above
Chain of AMPK alpha1/beta2/gamma1 (Q13131 whole entry): as the sequence (Q13131 whole entry) above

N#Cc1c(O)c2c(-c3ccc(-c4ccccc4O)cc3)csc2[nH]c1=O
Kd [1]: 14.5 µM
Kd [2]: 0.51 µM
Selectivity ratio [3]: 30

From ChEMBL document CHEMBL3804759, “Pharmacological Targeting of AMP-Activated Protein Kinase and Opportunities for Computer-Aided Drug Design” (J Med Chem, 2016)
